In patent US20240376084A1, “INHIBITORS OF ALPHA-HEMOLYSIN OF STAPHYLOCOCCUS AUREUS” (Helmholtz-Zentrum Fur Infektionsforschung GmbH, priority 2021, published 2024):

biological target: hemolysin alpha from Staphylococcus aureus (Staphylococcus aureus, UniProt P09616); experiment: cell-based
Sequence (P09616 27-319 limits assumed): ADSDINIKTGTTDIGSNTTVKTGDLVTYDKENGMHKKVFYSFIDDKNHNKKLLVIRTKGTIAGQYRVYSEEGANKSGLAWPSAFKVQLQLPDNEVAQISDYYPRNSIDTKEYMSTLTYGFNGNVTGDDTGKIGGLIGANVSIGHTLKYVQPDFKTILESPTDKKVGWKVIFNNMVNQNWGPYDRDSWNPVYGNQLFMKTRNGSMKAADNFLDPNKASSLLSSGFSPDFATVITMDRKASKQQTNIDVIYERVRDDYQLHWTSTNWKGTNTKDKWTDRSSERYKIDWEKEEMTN

Cc1ccc(NS(=O)(=O)c2cc3[nH]c(=O)c(=O)[nH]c3cc2C)cc1Cl [Compound 181, N-(3-chloro-4-methylphenyl)-7-methyl-2,3-dioxo-1,2,3,4-tetrahydroquinoxaline-6-sulfonamide] and Cc1cc2[nH]c(=O)c(=O)[nH]c2cc1S(=O)(=O)Nc1ccc(F)c(Cl)c1 [Compound 183, N-(3-chloro-4-fluorophenyl)-7-methyl-2,3-dioxo-1,2,3,4-tetrahydroquinoxaline-6-sulfonamide] fall in the same range of IC50: 1000 to 3500 nM for the first, 1000 to 3500 nM for the second.

First: Cc1cc2[nH]c(=O)c(=O)[nH]c2cc1S(=O)(=O)Nc1cc(C)c(-c2ccncc2)c(C)c1 [Compound 131, N-(3,5-dimethyl-4-(pyridin-4-yl)phenyl)-7-methyl-2,3-dioxo-1,2,3,4-tetrahydroquinoxaline-6-sulfonamide]
Second: Cc1cc(NS(=O)(=O)c2cc3[nH]c(=O)c(=O)[nH]c3cc2F)cc(C)c1-c1ccncc1 [Compound 167, N-(3,5-dimethyl-4-(pyridin-4-yl)phenyl)-7-fluoro-2,3-dioxo-1,2,3,4-tetrahydroquinoxaline-6-sulfonamide]
The IC50 of the first is lower: 100 to 1000 nM for the first, 1000 to 3500 nM for the second.

Cc1cc2[nH]c(=O)c(=O)[nH]c2cc1S(=O)(=O)Nc1ccc(-c2c(C)cccc2C)cc1 [Compound 116, N-(2′,6′-dimethyl-[1,1′-biphenyl]-4-yl)-7-methyl-2,3-dioxo-1,2,3,4-tetrahydroquinoxaline-6-sulfonamide] and Cc1ccc(NS(=O)(=O)c2cc3[nH]c(=O)c(=O)[nH]c3cc2C)cc1 [Compound 179, 7-methyl-2,3-dioxo-N-(p-tolyl)-1,2,3,4-tetrahydroquinoxaline-6-sulfonamide] fall in the same range of IC50: 100 to 1000 nM for the first, 100 to 1000 nM for the second.

Compared with O=c1[nH]c2cc(F)c(S(=O)(=O)Nc3ccc4c(c3)CCCC4)cc2[nH]c1=O [Compound 164, 7-fluoro-2,3-dioxo-N-(5,6,7,8-tetrahydronaphthalen-2-yl)-1,2,3,4-tetrahydroquinoxaline-6-sulfonamide], O=c1[nH]c2cc(F)c(S(=O)(=O)Nc3ccc(C(F)(F)F)c(Cl)c3)cc2[nH]c1=O [Compound 165, N-(3-chloro-4-(trifluoromethyl)phenyl)-7-fluoro-2,3-dioxo-1,2,3,4-tetrahydroquinoxaline-6-sulfonamide] is higher in IC50: 100 to 1000 nM for the first, 1000 to 3500 nM for the second. The first is the more potent here.

CC(C)c1cc2[nH]c(=O)c(=O)[nH]c2cc1S(=O)(=O)Nc1ccc(-c2ccoc2)c(Cl)c1 [Compound 161, N-(3-chloro-4-(furan-3-yl)phenyl)-7-isopropyl-2,3-dioxo-1,2,3,4-tetrahydroquinoxaline-6-sulfonamide] and CC(C)c1cc2[nH]c(=O)c(=O)[nH]c2cc1S(=O)(=O)Nc1ccc(-c2ccccc2)c(Cl)c1 [Compound 176, N-(2-chloro-[1,1′-biphenyl]-4-yl)-7-isopropyl-2,3-dioxo-1,2,3,4-tetrahydroquinoxaline-6-sulfonamide] fall in the same range of IC50: 100 to 1000 nM for the first, 100 to 1000 nM for the second.

Cc1cc(NS(=O)(=O)c2cc3[nH]c(=O)c(=O)[nH]c3cc2F)cc(C)c1-c1ccoc1 [Compound 166, 7-fluoro-N-(4-(furan-3-yl)-3,5-dimethylphenyl)-2,3-dioxo-1,2,3,4-tetrahydroquinoxaline-6-sulfonamide] and Cc1cc(NS(=O)(=O)c2cc3[nH]c(=O)c(=O)[nH]c3cc2F)cc(C)c1Br [Compound 162, N-(4-bromo-3,5-dimethylphenyl)-7-fluoro-2,3-dioxo-1,2,3,4-tetrahydroquinoxaline-6-sulfonamide] fall in the same range of IC50: 100 to 1000 nM for the first, 100 to 1000 nM for the second.

Cc1cc(NS(=O)(=O)c2cc3[nH]c(=O)c(=O)[nH]c3cc2F)ccc1-c1ccncc1 [Compound 169, 7-fluoro-N-(3-methyl-4-(pyridin-4-yl)phenyl)-2,3-dioxo-1,2,3,4-tetrahydroquinoxaline-6-sulfonamide] and Cc1ccc(-c2ccc(NS(=O)(=O)c3cc4[nH]c(=O)c(=O)[nH]c4cc3F)cc2Cl)o1 [Compound 158, N-(3-chloro-4-(5-methylfuran-2-yl)phenyl)-7-fluoro-2,3-dioxo-1,2,3,4-tetrahydroquinoxaline-6-sulfonamide] fall in the same range of IC50: 100 to 1000 nM for the first, 100 to 1000 nM for the second.

CC(C)c1cc2[nH]c(=O)c(=O)[nH]c2cc1S(=O)(=O)Nc1ccc(-c2cccc(Cl)c2)c(Cl)c1 [Compound 178, N-(2,3′-dichloro-[1,1′-biphenyl]-4-yl)-7-isopropyl-2,3-dioxo-1,2,3,4-tetrahydroquinoxaline-6-sulfonamide] and CC(C)c1cc2[nH]c(=O)c(=O)[nH]c2cc1S(=O)(=O)Nc1ccc(Br)c(Cl)c1 [Compound 154, N-(4-bromo-3-chlorophenyl)-7-isopropyl-2,3-dioxo-1,2,3,4-tetrahydroquinoxaline-6-sulfonamide] fall in the same range of IC50: 100 to 1000 nM for the first, 100 to 1000 nM for the second.

First: CCOc1ccc(NS(=O)(=O)c2cc3[nH]c(=O)c(=O)[nH]c3cc2C)cc1 [Compound 111, N-(4-ethoxyphenyl)-7-methyl-2,3-dioxo-1,2,3,4-tetrahydroquinoxaline-6-sulfonamide]
Second: Cc1ccc(NS(=O)(=O)c2cc3[nH]c(=O)c(=O)[nH]c3cc2C)cc1C [Compound 185, N-(3,4-dimethylphenyl)-7-methyl-2,3-dioxo-1,2,3,4-tetrahydroquinoxaline-6-sulfonamide]
The IC50 of the first is lower: 100 to 1000 nM for the first, 1000 to 3500 nM for the second. The first is the more potent here.

First: Cc1cc(NS(=O)(=O)c2cc3[nH]c(=O)c(=O)[nH]c3cc2Cl)cc(C)c1-c1ccsc1 [Compound 80, 7-chloro-N-(3,5-dimethyl-4-(thiophen-3-yl)phenyl)-2,3-dioxo-1,2,3,4-tetrahydroquinoxaline-6-sulfonamide]
Second: Cc1cc(NS(=O)(=O)c2cc3[nH]c(=O)c(=O)[nH]c3cc2Cl)cc(C)c1-c1ccncc1 [Compound 157, 7-chloro-N-(3,5-dimethyl-4-(pyridin-4-yl)phenyl)-2,3-dioxo-1,2,3,4-tetrahydroquinoxaline-6-sulfonamide]
The IC50 of the first is lower: 100 to 1000 nM for the first, 1000 to 3500 nM for the second. The first is the more potent here.

CC(C)c1cc2[nH]c(=O)c(=O)[nH]c2cc1S(=O)(=O)Nc1ccc(C2CC2)cc1 [Compound 153, N-(4-cyclopropylphenyl)-7-isopropyl-2,3-dioxo-1,2,3,4-tetrahydroquinoxaline-6-sulfonamide] and O=c1[nH]c2cc(F)c(S(=O)(=O)Nc3ccc4ccccc4c3)cc2[nH]c1=O [Compound 95, 7-fluoro-N-(naphthalen-2-yl)-2,3-dioxo-1,2,3,4-tetrahydroquinoxaline-6-sulfonamide] fall in the same range of IC50: 100 to 1000 nM for the first, 100 to 1000 nM for the second.

First: Cc1cc2[nH]c(=O)c(=O)[nH]c2cc1S(=O)(=O)Nc1ccc(N2CCOCC2C)c(Cl)c1 (stereo not drawn) [Compound 201, N-(3-chloro-4-(3-methylmorpholino)phenyl)-7-methyl-2,3-dioxo-1,2,3,4-tetrahydroquinoxaline-6-sulfonamide]
Second: Cc1cc2[nH]c(=O)c(=O)[nH]c2cc1S(=O)(=O)Nc1ccc(N2CCOC(C)C2)c(Cl)c1 (stereo not drawn) [Compound 204, N-(3-chloro-4-(2-methylmorpholino)phenyl)-7-methyl-2,3-dioxo-1,2,3,4-tetrahydroquinoxaline-6-sulfonamide]
The EC50 of the first is lower: 100 to 1000 nM for the first, 1000 to 3500 nM for the second. The first is the more potent here.

O=c1[nH]c2cc(C(F)(F)F)c(S(=O)(=O)Nc3ccc(OC(F)(F)F)cc3)cc2[nH]c1=O [Compound 190, 2,3-Dioxo-N-(4-(trifluoromethoxy)phenyl)-7-trifluoromethyl-1,2,3,4-tetrahydroquinoxaline-6-sulfonamide] and O=c1[nH]c2cc([N+](=O)[O-])c(S(=O)(=O)Nc3ccc(OC(F)(F)F)cc3)cc2[nH]c1=O [Compound 191, 7-nitro-2,3-dioxo-N-(4-(trifluoromethoxy)phenyl)-1,2,3,4-tetrahydroquinoxaline-6-sulfonamide] fall in the same range of EC50: 100 to 1000 nM for the first, 100 to 1000 nM for the second.

Cc1cc2[nH]c(=O)c(=O)[nH]c2cc1S(=O)(=O)Nc1ccc(N2CCCOCC2)c(Cl)c1 [Compound 208, N-(3-chloro-4-(1,4-oxazepan-4-yl)phenyl)-7-methyl-2,3-dioxo-1,2,3,4-tetrahydroquinoxaline-6-sulfonamide] and Cc1cc2[nH]c(=O)c(=O)[nH]c2cc1S(=O)(=O)Nc1ccc(N2CCOCC2)c(Cl)c1 [Compound 200, N-(3-chloro-4-morpholinophenyl)-7-methyl-2,3-dioxo-1,2,3,4-tetrahydroquinoxaline-6-sulfonamide] fall in the same range of EC50: 1000 to 3500 nM for the first, 1000 to 3500 nM for the second.

Cc1cc2[nH]c(=O)c(=O)[nH]c2cc1S(=O)(=O)Nc1cc(Cl)c(-c2ccc(F)cc2)cn1 [Compound 212, N-(4-chloro-5-(4-fluorophenyl)pyridin-2-yl)-7-methyl-2,3-dioxo-1,2,3,4-tetrahydroquinoxaline-6-sulfonamide] and Cc1cc2[nH]c(=O)c(=O)[nH]c2cc1S(=O)(=O)Nc1cnc(-c2ccc(F)cc2)c(Cl)c1 [Compound 215, N-(5-chloro-6-(4-fluorophenyl)pyridin-3-yl)-7-methyl-2,3-dioxo-1,2,3,4-tetrahydroquinoxaline-6-sulfonamide] fall in the same range of EC50: 30 to 100 nM for the first, 30 to 100 nM for the second.

CC(C)(C)c1ccc(NS(=O)(=O)c2cc3[nH]c(=O)c(=O)[nH]c3cc2Br)cc1 [Compound 195, 7-bromo-N-(4-(tert-butyl)phenyl)-2,3-dioxo-1,2,3,4-tetrahydroquinoxaline-6-sulfonamide] and Cc1nc2cc(NS(=O)(=O)c3cc4[nH]c(=O)c(=O)[nH]c4cc3C)ccc2s1 [Compound 234, 7-methyl-N-(2-methylbenzo[d]thiazol-5-yl)-2,3-dioxo-1,2,3,4-tetrahydroquinoxaline-6-sulfonamide] fall in the same range of EC50: 1000 to 3500 nM for the first, 1000 to 3500 nM for the second.

Cc1cc2[nH]c(=O)c(=O)[nH]c2cc1S(=O)(=O)Nc1ccc(-c2ccccc2)nc1 [Compound 224, 7-methyl-2,3-dioxo-N-(6-phenylpyridin-3-yl)-1,2,3,4-tetrahydroquinoxaline-6-sulfonamide] and Cc1cc2[nH]c(=O)c(=O)[nH]c2cc1S(=O)(=O)Nc1nc2ccccc2s1 [Compound 238, N-(benzo[d]thiazol-2-yl)-7-methyl-2,3-dioxo-1,2,3,4-tetrahydroquinoxaline-6-sulfonamide] fall in the same range of EC50: 100 to 1000 nM for the first, 100 to 1000 nM for the second.

First: Cc1cc2[nH]c(=O)c(=O)[nH]c2cc1S(=O)(=O)Nc1cc(Cl)c(Br)cn1 [Compound 226, N-(5-bromo-4-chloropyridin-2-yl)-7-methyl-2,3-dioxo-1,2,3,4-tetrahydroquinoxaline-6-sulfonamide]
Second: Cc1cc2[nH]c(=O)c(=O)[nH]c2cc1S(=O)(=O)Nc1ccc(OC(F)(F)F)nc1 [Compound 223, 7-methyl-2,3-dioxo-N-(6-(trifluoromethoxy)pyridin-3-yl)-1,2,3,4-tetrahydroquinoxaline-6-sulfonamide]
The EC50 of the first is higher: 1000 to 3500 nM for the first, 100 to 1000 nM for the second. The second is the more potent here.
